The record followed here is PubChem BioAssay AID179 (DTP/NCI, 2004).

Calls of active or inactive are those of the source.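 How the source made its calls: active means compounds giving half or more protection of infected cells from virus-caused growth loss, again on retest; inactive means the rest.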

In the experiment the test system is CEM cells HIV-1 protection, formazan growth assay. Kind of experiment: NCI AIDS Antiviral Assay. Particulars: for IC50: measured here: growth of uninfected CEM cells. In a few lines: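 CEM (human) cells, HIV-1 infected vs uninfected, 5-point dosing, formazan growth read-out. Retest threshold 50% protection.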

The EC50 is the concentration at which the effect is half-maximal. Broadly, the IC50 is the midpoint of a concentration-inhibition curve. As for `N.N.N.N.O=S(=O)([O-])[O-].[Co+3].[OH3+].[OH3+]`, the EC50 is greater than 39.8 µM and the IC50 worked out at 38.9 µM.
With `NC(Cc1ccc(OCc2ccccc2)cn1)C(=O)OCc1ccccc1` (centres undefined), the EC50 was greater than 200 µM and the IC50 was greater than 200 µM.
In the case of `CC1=C(N(C)C)C(=O)c2nc3n(c2C1=O)CCC3OC(N)=O` (centres undefined), the EC50 was greater than 200 µM and the IC50 stood at 11.2 µM.
Consider `CC(=S)N/C=C\c1nc2ccccc2[nH]c1=O`, for which the result was inactive.
For the compound `CC(=O)OC1[C@@H](OC(C)=O)CN(OCc2ccccc2)C[C@H]1OC(C)=O` (some centres undefined), the EC50 is greater than 200 µM and the IC50 was greater than 200 µM.
Take `Cn1cc([N+](=O)[O-])cc1C(=O)Nc1ccc(S(=O)(=O)O)c2cc(S(=O)(=O)O)ccc12`: the EC50 was greater than 501 µM and the IC50 was greater than 501 µM.
In the case of `CC1C2CC3(c4ccccc4)CC(/C2=N\O)/C(=N/O)C1[C@@]3(C)O` (some centres undefined), the EC50 is greater than 200 µM and the IC50 is greater than 200 µM.
Take `C#CCOCn1cnc2c(Cl)ncnc21`: the EC50 was greater than 1120 µM and the IC50 came out at 79.4 µM.
As to `O=C1C(=Cc2cccc(F)c2)C(=O)c2ccccc21`, the EC50 was greater than 20.9 µM and the IC50 was greater than 20.9 µM.
For `COC(=O)C(Cc1nc2ccccc2[nH]c1=O)C(NO)C(=O)Nc1c(Cl)cc([N+](=O)[O-])cc1Cl` (centres undefined), the EC50 is greater than 51.3 µM and the IC50 is greater than 51.3 µM.
Take `CC(=O)Nc1ccc(Nc2cc(=O)n(C)c(=O)[nH]2)cc1`: the EC50 was greater than 200 µM and the IC50 was greater than 200 µM.
With `CC(C)N1CN(c2ccccc2)C2(CCN(CCCC(=O)c3ccc(F)cc3)CC2)C1=O`, the EC50 is greater than 200 µM and the IC50 came to 5.75 µM.
Take `O=c1[nH]nc(-c2ccccc2)n1/N=C/c1ccccc1Cl`: the EC50 was greater than 200 µM and the IC50 stood at 74.1 µM.
For `Cc1cc(O)c(C=NC(=S)c2cccnc2)c(=O)o1`, in that order: greater than 200 µM and 77.6 µM.
For `O=C(N/C(=C\c1ccccc1)c1nc2ccccc2c(=O)o1)c1ccccc1`, in that order: greater than 200 µM and greater than 200 µM.
With `O=C1CC(c2ccccc2)n2cccc21` (centres undefined), the result was inactive.
In the case of `CCCCCCNC(=O)/C(=C/C=C/c1ccccc1)NC(=O)c1ccccc1`, the EC50 was greater than 200 µM and the IC50 was 49 µM.
With `CSc1nc(SC)c2[nH]cnc2n1`, the EC50 was greater than 200 µM and the IC50 was determined as 145 µM.
In the same order, the values of `COc1c(C)c(C/C=C(\C)CC/C=C(\C)CC/C=C(\C)CCC=C(C)C)c(OC)c(OC)c1OC` are greater than 200 µM and greater than 200 µM.
Take `O=C(O)CN(CC(=O)O)C1CCCCC1N1CC(=O)OC(=O)C1` (centres undefined): the EC50 was greater than 200 µM and the IC50 amounted to 18.2 µM.
Consider `Cn1nc(-c2ccccc2)c(C(=O)/C=C/c2ccc(F)cc2)c(N2CCCCC2)c1=O`, for which the EC50 was greater than 18.6 µM and the IC50 is greater than 18.6 µM.
Take `CCCCCCNc1n[nH]c(=O)c2c1nnn2Cc1ccccc1`: the EC50 is greater than 200 µM and the IC50 was greater than 200 µM.
`O=C(Nc1ccccc1)c1cc(S(=O)(=O)Nc2n[nH]c(=O)n2-c2ccccc2)c(S)cc1Cl`: the EC50 is 89.1 µM and the IC50 was greater than 200 µM.
Turning to `COC1=CC=C2Nc3nc(N)[nH]c(=O)c3SC2N1` (centres undefined), the EC50 was greater than 178 µM and the concentration for half-maximal inhibition (IC50) is greater than 178 µM.
Regarding `CC(Oc1ccc2cc(C(=O)c3ccccc3)c(=O)oc2c1)C(=O)O` (centres undefined), the outcome was inactive.
As to `C#CC1(O)C(CO)OC(n2ccc(=O)[nH]c2=O)C1O[Si](C)(C)C(C)(C)C` (centres undefined), the EC50 was greater than 200 µM and the IC50 was determined as 27.5 µM.
With `C[P+]1(c2ccccc2)CCC(N)=C(C#N)C1` (centres undefined), the EC50 is greater than 1070 µM and the IC50 is greater than 1070 µM.
Turning to `CC1(CCCO)CCCCCCCCCC(C)(CCCO)C1=O` (centres undefined), the EC50 is greater than 200 µM and the IC50 is 115 µM.
Turning to `C[n+]1c2ccccc2c(CNc2ccc(S(=O)(=O)N=C(N)N)cc2)c2ccccc21`, the result was inactive.
